Test results reported in the supplement of paper PMC10307832.

Tests used:
Test in all cases: relative viability (nuclei count vs DMSO), 5 days (fraction); higher = more cells survive
[1] = tested on: A-427
In short: (§1)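 Each reported value is a median over duplicate plates. It expresses relative viability: treated-well nuclei count divided by vehicle-well nuclei count. Lung cancer cell lines in 1536-well plates were dosed by pin tool a day after seeding, alone with one drug or with a fixed anchor-drug dose plus five library-drug doses (not always all listed) in √10 steps, and nuclei were counted after 5 days.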

[2] = tested on: LU99A
In short: as §1

[3] = tested on: HARA
In short: as §1

[4] = tested on: NCI-H441
In short: as §1

[5] = tested on: LCLC-97TM1
In short: as §1

[6] = tested on: NCI-H23
In short: as §1

[7] = tested on: NCI-H460
In short: as §1

[8] = tested on: SK-LU-1
In short: as §1

[9] = tested on: NCI-H2023
In short: as §1

[10] = tested on: NCI-H1666
In short: as §1

[11] = tested on: NCI-H2126
In short: as §1

[12] = tested on: LOU-NH91
In short: as §1

[13] = tested on: NCI-H1915
In short: as §1

[14] = tested on: PC-3 [JPC-3]
In short: as §1

[15] = tested on: NCI-H1395
In short: as §1

[16] = tested on: NCI-H1793
In short: as §1

[17] = tested on: NCI-H1755
In short: as §1

[18] = tested on: NCI-H1944
In short: as §1

[19] = tested on: NCI-H322M
In short: as §1

[20] = tested on: LXF-289
In short: as §1

[21] = tested on: NCI-H2170
In short: as §1

[22] = tested on: BEN
In short: as §1

## CCCCCCCCCCCC1=C(O)C(=O)C=C(O)C1=O [Embelin] + CC1(C)CCC(c2ccc(Cl)cc2)=C(CN2CCN(c3ccc(C(=O)NS(=O)(=O)c4ccc(N[C@H](CCN5CCOCC5)CSc5ccccc5)c(S(=O)(=O)C(F)(F)F)c4)cc3)CC2)C1 [Navitoclax] (partner 0.5 µM)
[1]; first compound 0.08 µM
  relative viability: 0.975
[1]; first compound 0.8 µM
  relative viability: 0.929
[1]; first compound 2.53 µM
  relative viability: 0.939
[1]; first compound 8 µM
  relative viability: 1
[2]; first compound 0.08 µM
  relative viability: 0.993
[2]; first compound 0.8 µM
  relative viability: 0.943
[2]; first compound 2.53 µM
  relative viability: 0.864
[2]; first compound 8 µM
  relative viability: 0.755
[3]; first compound 0.08 µM
  relative viability: 1.12
[3]; first compound 0.8 µM
  relative viability: 1.2
[3]; first compound 2.53 µM
  relative viability: 1.12
[3]; first compound 8 µM
  relative viability: 1.13
[4]; first compound 0.08 µM
  relative viability: 0.52
[4]; first compound 2.53 µM
  relative viability: 0.56
[4]; first compound 8 µM
  relative viability: 0.667
[5]; first compound 0.8 µM
  relative viability: 0.46
[5]; first compound 2.53 µM
  relative viability: 0.499
[5]; first compound 8 µM
  relative viability: 0.399
[6]; first compound 0.08 µM
  relative viability: 0.848
[6]; first compound 0.8 µM
  relative viability: 0.904
[6]; first compound 2.53 µM
  relative viability: 0.884
[6]; first compound 8 µM
  relative viability: 0.74
[7]; first compound 0.08 µM
  relative viability: 1.07
[7]; first compound 0.8 µM
  relative viability: 1.26
[7]; first compound 2.53 µM
  relative viability: 1.4
[7]; first compound 8 µM
  relative viability: 1.08
[8]; first compound 0.08 µM
  relative viability: 0.808
[8]; first compound 0.8 µM
  relative viability: 1.16
[8]; first compound 2.53 µM
  relative viability: 0.786
[8]; first compound 8 µM
  relative viability: 0.832
[9]; first compound 0.08 µM
  relative viability: 1.05
[9]; first compound 0.8 µM
  relative viability: 1.05
[9]; first compound 2.53 µM
  relative viability: 1.02
[9]; first compound 8 µM
  relative viability: 0.689
[10]; first compound 0.08 µM
  relative viability: 1.21
[10]; first compound 0.8 µM
  relative viability: 1.22
[10]; first compound 2.53 µM
  relative viability: 0.995
[10]; first compound 8 µM
  relative viability: 0.999
[11]; first compound 0.08 µM
  relative viability: 0.879
[11]; first compound 0.8 µM
  relative viability: 0.801
[11]; first compound 2.53 µM
  relative viability: 0.848
[11]; first compound 8 µM
  relative viability: 0.869
[12]; first compound 0.08 µM
  relative viability: 0.77
[12]; first compound 0.8 µM
  relative viability: 1.02
[12]; first compound 2.53 µM
  relative viability: 0.837
[12]; first compound 8 µM
  relative viability: 0.637
[13]; first compound 0.08 µM
  relative viability: 0.822
[13]; first compound 0.8 µM
  relative viability: 0.784
[13]; first compound 2.53 µM
  relative viability: 0.793
[13]; first compound 8 µM
  relative viability: 0.796
[14]; first compound 0.08 µM
  relative viability: 0.82
[14]; first compound 0.8 µM
  relative viability: 0.752
[14]; first compound 2.53 µM
  relative viability: 0.941
[14]; first compound 8 µM
  relative viability: 0.72
[15]; first compound 0.08 µM
  relative viability: 1.18
[15]; first compound 0.8 µM
  relative viability: 1.42
[15]; first compound 2.53 µM
  relative viability: 1.18
[15]; first compound 8 µM
  relative viability: 0.982
[16]; first compound 0.08 µM
  relative viability: 0.461
[16]; first compound 0.8 µM
  relative viability: 0.46
[16]; first compound 2.53 µM
  relative viability: 0.498
[16]; first compound 8 µM
  relative viability: 0.369
[17]; first compound 0.08 µM
  relative viability: 0.993
[17]; first compound 0.8 µM
  relative viability: 1.03
[17]; first compound 2.53 µM
  relative viability: 1.07
[17]; first compound 8 µM
  relative viability: 0.991
[18]; first compound 0.08 µM
  relative viability: 1.01
[18]; first compound 0.8 µM
  relative viability: 1.11
[18]; first compound 2.53 µM
  relative viability: 1.06
[18]; first compound 8 µM
  relative viability: 0.941
[19]; first compound 0.08 µM
  relative viability: 1.1
[19]; first compound 0.8 µM
  relative viability: 1.37
[19]; first compound 2.53 µM
  relative viability: 1.48
[19]; first compound 8 µM
  relative viability: 1.12
[20]; first compound 0.08 µM
  relative viability: 1.01
[20]; first compound 0.8 µM
  relative viability: 0.959
[20]; first compound 2.53 µM
  relative viability: 1.03
[20]; first compound 8 µM
  relative viability: 0.953
[21]; first compound 0.08 µM
  relative viability: 0.641
[21]; first compound 0.8 µM
  relative viability: 0.678
[21]; first compound 2.53 µM
  relative viability: 0.698
[21]; first compound 8 µM
  relative viability: 0.547
[22]; first compound 0.08 µM
  relative viability: 0.0728
[22]; first compound 0.8 µM
  relative viability: 0.0709
[22]; first compound 2.53 µM
  relative viability: 0.0714
[22]; first compound 8 µM
  relative viability: 0.0735
